Eleven compounds from ChEMBL document CHEMBL1201862, “PubChem BioAssay data set” (2004) can be followed below.

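Protocol summary: plate cells (96-well), add compound at 5 concentrations, incubate 48 h, interpolate endpoints linearly. Abbreviation: GI50, concentration required for 50% inhibition of growth.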 Activity calls are given as the source filed them. Cut-off read from the data, not from the text of the source: active = GI50 up to about 1.1 µM and inactive = higher. A value given as a limit tells only on which side of the number the result lay.

Holding throughout (experiment): inhibition of tumour cell growth, NCI panel, 48 h
Test [1] has as its system KM12.
Test [2] has as its system SNB-75.
Test [3] relates to TK-10.
Test [4] has as its system NCI/ADR-RES.
Test [5] deals with MOLT-4.
Test [6] deals with HT-29.
Test [7] has as its system SK-MEL-2.
For test [8], the system named is UO-31.
For test [9], the system named is UACC-62.
Test [10] deals with M14.
Test [11] relates to HCT-15.
For test [12], the system named is PC-3.
The subject of test [13] is COLO 205.
Test [14] concerns SR.
The subject of test [15] is A498.
Test [16] relates to HCT-116.
Test [17] concerns HOP-62.
Test [18] relates to CCRF-CEM.
For test [19], the system named is IGROV-1.
The test system of test [20] is Malme-3M.

Regarding `CN(C)C1C(CO)OC(n2cnc3c(N)ncnc32)C1O` (stereo not drawn), the GI50 in test [1], in [2], in test [3], in [4], in test [5] and in test [6] was > 100 µM (inactive) in each case. Also, the GI50 in test [7] is > 100 µM (inactive); in [8] it was > 100 µM (inactive); in [9], > 100 µM (inactive); in test [10] it was > 100 µM (inactive); in test [11], more than 100 µM; in [12], > 100 µM (inactive). For the same compound, the GI50 in test [13], in test [14], in test [15], in [16], in test [17] and in test [18] was > 100 µM (inactive) throughout. Besides, the GI50 in [19] was > 100 µM (inactive).
In the case of `Cc1cccc(NC(=O)CC(=O)N2N=C(N3c4ccccc4Sc4ccccc43)CC2c2ccccc2)c1` (stereo not drawn), the GI50 in test [1], in [2], in test [3], in test [4], in test [5] and in [6] was > 100 µM (inactive) throughout. The GI50 in test [7] was > 100 µM (inactive); in test [8] it was > 100 µM (inactive); in test [9], > 100 µM (inactive); in test [10] it was > 100 µM (inactive); in test [11], more than 100 µM; in test [12], > 100 µM (inactive). Also, the GI50 in test [13], in test [14], in test [15], in [16], in test [17] and in test [18] was > 100 µM (inactive) in each case. Moreover, the GI50 in test [19] is > 100 µM (inactive).
For the compound `COc1c(Sc2c(SCSc3cnc4ccccc4c3Sc3cnc4ccccc4c3OC)cnc3ccccc23)cnc2ccccc12`, the GI50 was > 100 µM (inactive) in [1]; 21.7 µM (inactive) in [2]; 38.6 µM (inactive) in [3]; 42.5 µM (inactive) in test [4]; 55.8 µM (inactive) in [5]; 78.7 µM (inactive) in test [6]. The GI50 is > 100 µM (inactive) in [7]; 24.7 µM (inactive) in test [8]; 39.1 µM (inactive) in test [9]; > 100 µM (inactive) in test [10]; 84.5 µM in test [11]; > 100 µM (inactive) in test [12]. Besides, the GI50 in test [13] is > 100 µM (inactive); in test [14], 21.8 µM (inactive); in test [16], 46.5 µM (inactive); in test [17], 42.9 µM (inactive); in test [18] it was > 100 µM (inactive); in test [19], 8.13 µM (inactive).
On to `Nc1ccn(C2OC(COP(=O)(O)O)C(O)C2O)c(=O)n1` (stereo not drawn), for which the GI50 was > 100 µM (inactive) in [1]; 28.8 µM (inactive) in test [2]; > 100 µM (inactive) in [3]; 6.38 µM (inactive) in [4]; 0.0497 µM (active) in test [5]; 11.4 µM (inactive) in test [6]. Also, the GI50 is > 100 µM (inactive) in test [7]; 6.98 µM (inactive) in [8]; 10.9 µM (inactive) in [9]; 0.982 µM (active) in test [10]; 45.5 µM in [11]; > 100 µM (inactive) in [12]. Besides, the GI50 is > 55.3 µM (inactive) in test [13]; 3.39 µM (inactive) in test [14]; 26.8 µM (inactive) in [15]; 1.8 µM (inactive) in test [16]; 0.951 µM (active) in [17]; < 0.01 µM (active) in test [18]. For the same compound, the GI50 in test [19] is 40.7 µM (inactive).
`CC(=O)OC1C(Oc2c(C)cc3c(c2O)[C@@H](C)CC[C@@H]3[C@@H](C)CCC=C(C)C)OCC(O)C1O` (stereo partly drawn): the GI50 in test [1] was 15.9 µM (inactive); in test [4], 21.1 µM (inactive); in test [5] it was 22.6 µM (inactive); in test [6], 14.4 µM (inactive); in test [7] it was 25.3 µM (inactive); in test [8] it was 17.3 µM (inactive). The GI50 in test [9] is 18.3 µM (inactive); in test [10], 16.9 µM (inactive); in [11], 17.5 µM; in test [12] it was 20.3 µM (inactive); in test [13] it was 16.6 µM (inactive); in test [14], 22.9 µM (inactive). In addition, the GI50 in test [15] is 20.3 µM (inactive); in [16], 18.2 µM (inactive); in [17] it was 17.3 µM (inactive); in test [18], 22.8 µM (inactive); in test [19] it was 19.1 µM (inactive).
`COc1cccc(CCNC(=O)Cc2ccccc2CCO)c1`: the GI50 in test [1], in test [2], in test [3], in test [4], in test [5] and in test [6] was > 100 µM (inactive) in each case. The GI50 is > 100 µM (inactive) in test [7]; > 100 µM (inactive) in [8]; > 100 µM (inactive) in [9]; > 100 µM (inactive) in test [10]; more than 100 µM in test [11]; > 100 µM (inactive) in [12]. The GI50 in [13], in test [14], in [15], in test [16], in test [17] and in test [18] was > 100 µM (inactive) throughout. Moreover, in [19], the GI50 was > 100 µM (inactive).
With `CNC(=O)C1(C#N)C(c2ccccc2)C(C#N)(C(=O)NC)C1c1ccccc1` (stereo not drawn), the GI50 in test [1], in test [2], in test [3], in [4], in test [5] and in [6] was > 100 µM (inactive) in each case. Besides, the GI50 in test [7] is > 100 µM (inactive); in test [8], > 100 µM (inactive); in [10], > 100 µM (inactive); in test [11], more than 100 µM; in test [12], > 100 µM (inactive); in test [13], > 100 µM (inactive). The GI50 in test [14], in test [15], in test [16], in test [17], in test [18] and in test [19] was > 100 µM (inactive) each time.
Regarding `FC(F)(F)c1ccc(C2=N/S(c3ccccc3)=N\C(c3ccc(C(F)(F)F)cc3)=N/S(c3ccccc3)=N\2)cc1` (stereo not drawn), the GI50 in test [1], in test [2], in [3], in [4], in test [5] and in test [6] was > 100 µM (inactive) throughout. Besides, the GI50 in test [7] is > 100 µM (inactive); in [8], > 100 µM (inactive); in test [9] it was > 100 µM (inactive); in [10], > 100 µM (inactive); in test [11] it was more than 100 µM; in test [12], > 100 µM (inactive). The GI50 in [13], in test [14], in test [16], in [20], in [18] and in test [19] was > 100 µM (inactive) each time.
For the compound `COc1ccc(C(=O)/C=C/c2ccc(OCCCCCCCCCCOc3ccc(/C=C/C(=O)c4ccc(OC)cc4)cc3)cc2)cc1`, the GI50 is > 100 µM (inactive) in [1]; 69.7 µM (inactive) in test [2]; > 100 µM (inactive) in test [3]; > 100 µM (inactive) in test [4]; > 100 µM (inactive) in [5]; > 100 µM (inactive) in test [6]. In addition, the GI50 in test [7] is > 100 µM (inactive); in test [8], > 100 µM (inactive); in test [9], > 100 µM (inactive); in test [10] it was > 100 µM (inactive); in test [11] it was more than 100 µM; in test [12], > 100 µM (inactive). For the same compound, the GI50 in [13], in test [14], in test [16], in test [17], in [18] and in [19] was > 100 µM (inactive) in each case.
Turning to `CC1(C)N=c2c(ncn2CCCO)=C(C(N)=O)N1`, the GI50 was > 100 µM (inactive) in test [1]; 60.4 µM (inactive) in [2]; > 100 µM (inactive) in test [3]; > 100 µM (inactive) in [4]; > 100 µM (inactive) in test [6]; > 100 µM (inactive) in test [9]. Besides, the GI50 in [10] was > 100 µM (inactive); in test [11], more than 100 µM; in [12], > 100 µM (inactive); in test [13] it was > 100 µM (inactive); in [14], > 100 µM (inactive); in test [15], > 100 µM (inactive). The GI50 in test [16], in [20], in [17], in test [18] and in [19] was > 100 µM (inactive) in each case.
For `O=c1[nH]nc(-c2ccccc2)n1/N=C/c1ccccc1O`, the GI50 is 47 µM (inactive) in test [1]; > 100 µM (inactive) in test [3]; > 100 µM (inactive) in test [4]; > 100 µM (inactive) in test [5]; > 100 µM (inactive) in [6]; > 100 µM (inactive) in test [7]. In addition, the GI50 in [8] is > 100 µM (inactive); in test [9] it was 81.1 µM (inactive); in test [11], more than 100 µM; in test [12], 89.9 µM (inactive); in [13] it was > 100 µM (inactive); in test [14], > 100 µM (inactive). Moreover, the GI50 in test [15] is 34.1 µM (inactive); in test [16], 33.4 µM (inactive); in [20] it was 88.1 µM (inactive); in [19], 53 µM (inactive).
